Measured values taken from patent US11213517B2, “Pharmaceutical combination comprising a T-type calcium channel blocker” (IDORSIA PHARMACEUTICALS LTD, priority 2016, dated 2022).
“And” between values parts separate entries of the source, which are not always exact repeats. Identical values can stand only once. Like-named read-outs stand apart in the source and are kept apart here.

Tests used:
[1] = test system: audiogenic seizure-sensitive juvenile DBA/2J mice; experiment: Audiogenic seizure-sensitive juvenile DBA/2J mouse model of generalized tonic-clonic seizures; assay type: in vivo; design: key: 0 none, 1 wild running, 2 clonus, 3 hind-limb tonic extension; settings: COMPOUND 1 10 mg/kg 3 h + vehicle 1 h before stimulus, oral gavage; mean ± SEM; 10 mg/kg
Description: Audiogenic Seizure-Sensitive Juvenile DBA/2J Mouse Model of Generalized Tonic-Clonic Seizures
The inbred DBA/2J mouse strain carries an increased general susceptibility for acute generalized convulsive seizures induced by either pharmacological, electrical or, as juvenile, auditory stimuli. At the age of 17 to 28 days (juvenile), they show tonic-clonic convulsions when exposed to a loud tone.
Male juvenile DBA/2J mice (22-24 days old, body weight between 6.6 and 14.5 grams) were used. Each mouse was placed individually in the exposure chamber, an hemispheric acrylic glass dome (diameter: 50 cm) within a sound-attenuated box. After 60 seconds of habituation, an auditory stimulus of mixed frequency tone (15-20 kHz at 110 dB) was played from a speaker placed on the top center of the dome.
The sound-attenuated box was equipped with lights and a camera system in order to observe and record the behavioral seizure response classified as following: • stage 0, no response • stage 1, wild running • stage 2, clonus • stage 3, tonic extension of the hind limbs.
(§1) Different combination efficacy experiments are performed. […] Each experiment consists of four treatment groups: • 1. Vehicle (10% Polyethylene glycol400 (PEG400)/90% methylcellulose (0.5% in water; MC0.5%)), 3 h before exposure to the auditory stimulus+vehicle, 1 h before exposure to the auditory stimulus; • 2. COMPOUND 1 (in 10% PEG400/90% MC0.5%), 3 h before exposure to the auditory stimulus+vehicle, 1 h before exposure to the auditory stimulus; • 3. Vehicle, 3 h before exposure to the auditory stimulus+AED (in 10% PEG400/90% MC0.5%), 1 h before exposure to the auditory stimulus; and • 4. COMPOUND 1 (in 10% PEG400/90% MC0.5%), 3 h before exposure to the auditory stimulus+AED (in 10% PEG400/90% MC0.5%), 1 h before exposure to the auditory stimulus.

[2] = Plasma and brain concentrations of drugs at the end of the audiogenic seizure experiment (LC-MS); assay type: in vivo, mouse; settings: for plasma and brain concentrations after administration of the compounds alone or in combination: juvenile DBA/2J mice; for concentration at 3 h: DBA/2J, mouse
Experimental: Briefly, blood was sampled from the vena cava caudalis with a syringe pre-filled with EDTA (ethylenediamine tetraacetic acid) as anticoagulant and centrifuged to yield plasma (for 10 minutes, at 4° C. and 5000 rpm (rounds per minute)). Brain was sampled and homogenized into one volume of cold phosphate buffer (pH 7.4). Following extraction with methanol, concentrations of the compound in plasma and brain were determined using liquid chromatography coupled to mass spectrometry.
as §1

[3] = analyte COMPOUND 1, COMPOUND 1 10 mg/kg 3 h + vehicle 1 h before stimulus, oral gavage, mean ± SEM, 10 mg/kg

For `N#Cc1ccc(Cn2ccc(NC(=O)Cc3ccc(C4(C(F)(F)F)CC4)cc3)n2)nc1` [COMPOUND 1, N-[1-(5-Cyano-pyridin-2-ylmethyl)-1H-pyrazol-3-yl]-2-[4-(1-trifluoromethyl-cyclopropyl)-phenyl]-acetamide], the “Seizure stage (maximal seizure stage observed during exposure to auditory stimulus)” value [1] was 3 and 2.7 ± 0.3 and 3.0 ± 0.0 and 2.9 ± 0.1 and 2.7 ± 0.2 and 2.8 ± 0.2, the “plasma and brain concentrations after administration of the compounds alone or in combination” value (from here on “plasma and brain concentrations”) ([2]; COMPOUND 1 and LEV) was “similar” and the “plasma and brain concentrations” value ([2]; COMPOUND 1 and lamotrigine) was “similar”. For the same compound, the “plasma and brain concentrations” value ([2]; COMPOUND 1 and valproic acid) was “similar”, the concentration at 3 h ([2]; brain, oral, analyte COMPOUND 1, COMPOUND 1 10 mg/kg 3 h + LEV 1 mg/kg 1 h before stimulus, oral gavage, mean ± SEM, read-out: Brain concentration total) was 1930 ± 100 ng/g and the concentration at 3 h ([2]; brain, oral, analyte COMPOUND 1, COMPOUND 1 10 mg/kg 3 h + LEV 3 mg/kg 1 h before stimulus, oral gavage, mean ± SEM, read-out: Brain concentration total) was 2520 ± 190 ng/g. The concentration at 3 h ([2]; brain, oral, analyte COMPOUND 1, COMPOUND 1 10 mg/kg 3 h + LEV 10 mg/kg 1 h before stimulus, oral gavage, mean ± SEM, read-out: Brain concentration total) was 2030 ± 137 ng/g, the concentration at 3 h ([2]; brain, oral, analyte COMPOUND 1, COMPOUND 1 10 mg/kg 3 h + LEV 50 mg/kg 1 h before stimulus, oral gavage, mean ± SEM, read-out: Brain concentration total) was 1810 ± 93 ng/g and the concentration at 3 h ([2]; brain, oral, analyte COMPOUND 1, COMPOUND 1 10 mg/kg 3 h + LTG 10 mg/kg 1 h before stimulus, oral gavage, mean ± SEM, read-out: Brain concentration total) was 1420 ± 165 ng/g. The concentration at 3 h ([2]; brain, oral, analyte COMPOUND 1, COMPOUND 1 10 mg/kg 3 h + VPA 100 mg/kg 1 h before stimulus, oral gavage, mean ± SEM, read-out: Brain concentration total) was 2040 ± 178 ng/g, the concentration at 3 h ([2]; brain, oral, analyte COMPOUND 1, COMPOUND 1 10 mg/kg 3 h + VPA 200 mg/kg 1 h before stimulus, oral gavage, mean ± SEM, read-out: Brain concentration total) was 1640 ± 52 ng/g and the concentration at 3 h ([2]; brain, oral, analyte COMPOUND 1, COMPOUND 1 30 mg/kg 3 h + LEV 3 mg/kg 1 h before stimulus, oral gavage, mean ± SEM, read-out: Brain concentration total) was 5960 ± 330 ng/g. For the same compound, the concentration at 3 h ([2]; brain, oral, analyte COMPOUND 1, COMPOUND 1 30 mg/kg 3 h + LEV 10 mg/kg 1 h before stimulus, oral gavage, mean ± SEM, read-out: Brain concentration total) was 5470 ± 533 ng/g, the concentration at 3 h ([2]; brain, oral, analyte COMPOUND 1, COMPOUND 1 30 mg/kg 3 h + LEV 50 mg/kg 1 h before stimulus, oral gavage, mean ± SEM, read-out: Brain concentration total) was 4690 ± 399 ng/g and the concentration at 3 h ([2]; brain, oral, analyte COMPOUND 1, COMPOUND 1 30 mg/kg 3 h + LTG 3 mg/kg 1 h before stimulus, oral gavage, mean ± SEM, read-out: Brain concentration total) was 5030 ± 238 ng/g. The concentration at 3 h ([2]; brain, oral, analyte COMPOUND 1, COMPOUND 1 30 mg/kg 3 h + LTG 10 mg/kg 1 h before stimulus, oral gavage, mean ± SEM, read-out: Brain concentration total) was 4260 ± 350 ng/g, the concentration at 3 h ([2]; brain, oral, analyte COMPOUND 1, COMPOUND 1 30 mg/kg 3 h + LTG 30 mg/kg 1 h before stimulus, oral gavage, mean ± SEM, read-out: Brain concentration total) was 3290 ± 170 ng/g and the concentration at 3 h ([2]; brain, oral, analyte COMPOUND 1, COMPOUND 1 30 mg/kg 3 h + VPA 30 mg/kg 1 h before stimulus, oral gavage, mean ± SEM, read-out: Brain concentration total) was 5100 ± 375 ng/g. The concentration at 3 h ([2]; brain, oral, analyte COMPOUND 1, COMPOUND 1 30 mg/kg 3 h + VPA 100 mg/kg 1 h before stimulus, oral gavage, mean ± SEM, read-out: Brain concentration total) was 5980 ± 336 ng/g, the concentration at 3 h ([2]; brain, oral, analyte COMPOUND 1, COMPOUND 1 30 mg/kg 3 h + VPA 200 mg/kg 1 h before stimulus, oral gavage, mean ± SEM, read-out: Brain concentration total) was 4990 ± 245 ng/g and the concentration at 3 h ([2]; brain, po, 10 mg/kg, analyte COMPOUND 1, COMPOUND 1 10 mg/kg 3 h + vehicle 1 h before stimulus, oral gavage, mean ± SEM, read-out: Brain concentration total) was 1450 ± 104 ng/g. The concentration at 3 h ([2]; brain, po, 30 mg/kg, analyte COMPOUND 1, COMPOUND 1 30 mg/kg 3 h + vehicle 1 h before stimulus, oral gavage, mean ± SEM, read-out: Brain concentration total) was 5230 ± 487 ng/g, the concentration at 3 h ([2]; plasma, oral, analyte COMPOUND 1, COMPOUND 1 10 mg/kg 3 h + LEV 1 mg/kg 1 h before stimulus, oral gavage, mean ± SEM, read-out: Plasma concentration total) was 1500 ± 112 ng/mL and the concentration at 3 h ([2]; plasma, oral, analyte COMPOUND 1, COMPOUND 1 10 mg/kg 3 h + LEV 3 mg/kg 1 h before stimulus, oral gavage, mean ± SEM, read-out: Plasma concentration total) was 1600 ± 111 ng/mL. For the same compound, the concentration at 3 h ([2]; plasma, oral, analyte COMPOUND 1, COMPOUND 1 10 mg/kg 3 h + LEV 10 mg/kg 1 h before stimulus, oral gavage, mean ± SEM, read-out: Plasma concentration total) was 1590 ± 142 ng/mL, the concentration at 3 h ([2]; plasma, oral, analyte COMPOUND 1, COMPOUND 1 10 mg/kg 3 h + LEV 50 mg/kg 1 h before stimulus, oral gavage, mean ± SEM, read-out: Plasma concentration total) was 1720 ± 124 ng/mL and the concentration at 3 h ([2]; plasma, oral, analyte COMPOUND 1, COMPOUND 1 10 mg/kg 3 h + LTG 10 mg/kg 1 h before stimulus, oral gavage, mean ± SEM, read-out: Plasma concentration total) was 1290 ± 140 ng/mL. For the same compound, the concentration at 3 h ([2]; plasma, oral, analyte COMPOUND 1, COMPOUND 1 10 mg/kg 3 h + VPA 100 mg/kg 1 h before stimulus, oral gavage, mean ± SEM, read-out: Plasma concentration total) was 710 ± 80 ng/mL, the concentration at 3 h ([2]; plasma, oral, analyte COMPOUND 1, COMPOUND 1 10 mg/kg 3 h + VPA 200 mg/kg 1 h before stimulus, oral gavage, mean ± SEM, read-out: Plasma concentration total) was 1160 ± 73 ng/mL and the concentration at 3 h ([2]; plasma, oral, analyte COMPOUND 1, COMPOUND 1 30 mg/kg 3 h + LEV 3 mg/kg 1 h before stimulus, oral gavage, mean ± SEM, read-out: Plasma concentration total) was 4530 ± 224 ng/mL. For the same compound, the concentration at 3 h ([2]; plasma, oral, analyte COMPOUND 1, COMPOUND 1 30 mg/kg 3 h + LEV 10 mg/kg 1 h before stimulus, oral gavage, mean ± SEM, read-out: Plasma concentration total) was 4120 ± 315 ng/mL, the concentration at 3 h ([2]; plasma, oral, analyte COMPOUND 1, COMPOUND 1 30 mg/kg 3 h + LEV 50 mg/kg 1 h before stimulus, oral gavage, mean ± SEM, read-out: Plasma concentration total) was 3720 ± 351 ng/mL and the concentration at 3 h ([2]; plasma, oral, analyte COMPOUND 1, COMPOUND 1 30 mg/kg 3 h + LTG 3 mg/kg 1 h before stimulus, oral gavage, mean ± SEM, read-out: Plasma concentration total) was 4550 ± 293 ng/mL. For the same compound, the concentration at 3 h ([2]; plasma, oral, analyte COMPOUND 1, COMPOUND 1 30 mg/kg 3 h + LTG 10 mg/kg 1 h before stimulus, oral gavage, mean ± SEM, read-out: Plasma concentration total) was 3960 ± 372 ng/mL, the concentration at 3 h ([2]; plasma, oral, analyte COMPOUND 1, COMPOUND 1 30 mg/kg 3 h + LTG 30 mg/kg 1 h before stimulus, oral gavage, mean ± SEM, read-out: Plasma concentration total) was 2920 ± 150 ng/mL and the concentration at 3 h ([2]; plasma, oral, analyte COMPOUND 1, COMPOUND 1 30 mg/kg 3 h + VPA 30 mg/kg 1 h before stimulus, oral gavage, mean ± SEM, read-out: Plasma concentration total) was 3150 ± 296 ng/mL. The concentration at 3 h ([2]; plasma, oral, analyte COMPOUND 1, COMPOUND 1 30 mg/kg 3 h + VPA 100 mg/kg 1 h before stimulus, oral gavage, mean ± SEM, read-out: Plasma concentration total) was 2820 ± 256 ng/mL, the concentration at 3 h ([2]; plasma, oral, analyte COMPOUND 1, COMPOUND 1 30 mg/kg 3 h + VPA 200 mg/kg 1 h before stimulus, oral gavage, mean ± SEM, read-out: Plasma concentration total) was 2110 ± 118 ng/mL and the concentration at 3 h ([2]; plasma, po, 10 mg/kg, analyte COMPOUND 1, COMPOUND 1 10 mg/kg 3 h + vehicle 1 h before stimulus, oral gavage, mean ± SEM, read-out: Plasma concentration total) was 2120 ± 175 ng/mL. The concentration at 3 h ([2]; plasma, po, 30 mg/kg, analyte COMPOUND 1, COMPOUND 1 30 mg/kg 3 h + vehicle 1 h before stimulus, oral gavage, mean ± SEM, read-out: Plasma concentration total) was 3090 ± 297 ng/mL, the Brain concentration total [2, 3] was 1895 ± 75 ng/g and 2379 ± 164 ng/g and 1965 ± 138 ng/g and 1743 ± 158 ng/g and 1435 ± 55 ng/g and 1197 ± 80 ng/g and the Plasma concentration total [2, 3] was 1128 ± 98 ng/mL and 1858 ± 116 ng/mL and 1894 ± 113 ng/mL and 1785 ± 186 ng/mL and 1318 ± 77 ng/mL and 1522 ± 109 ng/mL.
